Values of other authors, collected in patent US20060079683A1, “Arylthiobenzylpiperidine derivatives” (priority 2004, published 2006).

How the values were obtained:
Conditions in all cases: B. Borowsky, et al., Nature Medicine, 2002
[1] = target: T1, MCH1 receptor (Cavia porcellus, UniProt H0VKT7)
T1 construct: host or cells: living guinea pig, endogenous receptor

[2] = target: T2, MCH1 receptor (Rattus norvegicus, UniProt P97639)
T2 construct: host or cells: living rat, endogenous receptor

[3] = target: T2, MCH1 receptor; remark: listed apart in the source

T2 sequence (P97639 whole entry): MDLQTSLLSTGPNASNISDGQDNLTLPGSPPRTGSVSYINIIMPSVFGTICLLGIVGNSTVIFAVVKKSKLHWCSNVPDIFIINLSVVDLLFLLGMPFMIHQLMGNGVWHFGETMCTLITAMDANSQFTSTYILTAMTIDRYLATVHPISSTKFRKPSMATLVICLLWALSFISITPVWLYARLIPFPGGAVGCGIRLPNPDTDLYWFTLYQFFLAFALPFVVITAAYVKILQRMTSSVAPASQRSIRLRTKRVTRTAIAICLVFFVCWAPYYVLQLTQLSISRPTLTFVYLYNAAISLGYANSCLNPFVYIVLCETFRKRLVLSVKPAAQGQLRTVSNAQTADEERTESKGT
T1 sequence (H0VKT7 1-355): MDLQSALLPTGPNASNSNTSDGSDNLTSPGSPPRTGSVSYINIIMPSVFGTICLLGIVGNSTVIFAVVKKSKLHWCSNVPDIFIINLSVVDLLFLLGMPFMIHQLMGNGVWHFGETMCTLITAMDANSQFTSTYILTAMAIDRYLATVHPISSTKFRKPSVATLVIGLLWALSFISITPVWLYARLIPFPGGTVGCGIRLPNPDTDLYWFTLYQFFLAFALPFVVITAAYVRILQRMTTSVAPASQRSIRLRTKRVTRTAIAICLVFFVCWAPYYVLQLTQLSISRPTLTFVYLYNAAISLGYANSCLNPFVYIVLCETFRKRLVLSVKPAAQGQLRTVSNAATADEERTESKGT

Structure (SMILES): COCC1=C(C(=O)OC)[C@H](c2ccc(F)c(F)c2)N(C(=O)NCCCN2CCC(c3cccc(NC(C)=O)c3)CC2)C(=O)N1 [SNAP-7941]
- profile in behavioral model of depression and/or anxiety: guinea pig maternal-separation vocalization [1]: profile similar to clinically used anti-depressants and anxiolytics
- profile in behavioral model of depression and/or anxiety: rat social interaction [2]: profile similar to clinically used anti-depressants and anxiolytics
- profile in behavioral model of depression and/or anxiety: rat forced-swim [3]: profile similar to clinically used anti-depressants and anxiolytics
